Reference: US20110250292A1, “COMPOSITION FOR IMPROVING RA[…] CANCER” (CHONJISAN CO., LTD., priority 2008, published 2011)

Key:
[1] = tested on: human nasopharyngeal squamous cell carcinoma (FaDu); experiment: Single irradiation and tetra-arsenic oxide treatment on Balb/c nu/nu mouse having human nasopharyngeal squamous cell carcinoma (tumor volume); format: in vivo; conditions: FIGS. 2 and 3
Description: (§1) Balb/c, and Balb/c, nu/nu female mice (weight: 20 to 25 g, age: 6 to 8 weeks) were obtained from Orient bio (Taejun, Korea), and WEHI164 tumor cell line (derived from Meth-A-induced fibrosarcoma) and FaDu tumor cell line (derived from human nasopharyngeal squamous cell carcinoma) were bought from KCCB (Seoul, Korea). WEHI164 cells (5×10^5) or FaDu cells (1×10^6) in MEM 50 μl were hypodermically injected into a rear leg of a Balb/c or Balb/c nu/nu mouse, and then the growth of a tumor was observed.
(§2) Tetra-arsenic oxide obtained from Genew Science (Seoul, Korea) was placed in distilled water, and continuously stilled and dissolved. The resultant liquid was stored as a stock liquid at 4° C. The stock liquid was diluted with a phosphoric acid buffer solution in such a manner as to have a final concentration of 0.5 mg/ml.
(§3) In order to minimize acute arsenic toxicity, dextrose was added with a final concentration of 5% (F. X. Reichl, H. Kreppel, L. Szinicz, B. Fichtl, and W. Forth, Reduction of arsenic trioxide toxicity in mice by repeated treatment with glucose. Arch Toxicol Suppl 14 (1991) 225-7). […]
(§4) A tumor volume was measured twice to three times per week. The tumor size was measured by calipers, and the tumor volume was calculated by a×b×h/2 (a=minimum length, b=maximum length, h=height). […]

[2] = tested on: Meth-A tumor (WEHI164 fibrosarcoma); experiment: Irradiation and tetra-arsenic oxide treatment on Balb/c mouse having Meth-A tumor (tumor volume); format: in vivo; conditions: 8 mg/kg once into abdominal cavity 1 hour after single local irradiation; 6 mice; FIG. 1; *p<0.05
Description: as §1, §2
In order to minimize acute arsenic toxicity, dextrose was added with a final concentration of 5% (F. X. Reichl, H. Kreppel, L. Szinicz, B. Fichtl, and W. Forth, Reduction of arsenic trioxide toxicity in mice by repeated treatment with glucose. Arch Toxicol Suppl 14 (1991) 225-7).
In irradiation, a cobalt-60 unit (Theratron 780; AECL, Kanata, Ontarino, Canada) was used. […]
A change in the tumor size was measured by calipers twice to three times per week. A tumor volume was calculated by a×b×h/2 (a=minimum length, b=maximum length, h=height). […]

[3] = M. J. Park et al., Int. J. Oncol. 22, 2003; cited from earlier work
[4] = tested on: human nasopharyngeal squamous cell carcinoma (FaDu); experiment: Fractional irradiation and tetra-arsenic oxide treatment on Balb/c nu/nu mouse having human nasopharyngeal squamous cell carcinoma (tumor volume); format: in vivo; conditions: 8 mg/kg through abdominal cavity; fractional irradiation 12 Gy 4 times per week for 4 weeks; FIG. 3
Description: as §1, §2, §3, §4

[5] = oral dosage form; Z. X. Shen et al., Blood 89 (1997); cited from earlier work

| Molecule | tumor growth inhibition, separate treatment of tetra-arsenic oxide compared to control group ([1]; 8 mg/kg once through abdominal cavity, no irradiation) | tumor growth, combination with irradiation compared to irradiation alone ([1]; 8 mg/kg through abdominal cavity plus local irradiation) | growth of tumor (tumor volume), combination with irradiation compared to irradiation alone [2] | toxicity on oral administration [3] | radiosensitizer effect on tumor volume with fractional irradiation [4] | gastrointestinal toxicity on oral administration [5] |
| --- | --- | --- | --- | --- | --- | --- |
| O1[As]2O[As]3O[As]1O[As](O2)O3 [tetra-arsenic oxide, 2,4,6,8,9,10-Hexaoxa-1,3,5,7-tetraarsatricyclo [3.3.1.1^3,7]decane] | hardly has an effect on tumor growth inhibition | significantly reducing tumor growth | significantly reduced the growth of tumor | very low toxicity | significant effect as a radiosensitizer |  |
| arsenic trioxide |  |  |  |  |  | serious gastrointestinal toxicity |
